Experimental data as given in the supplement of paper PMC10307832.

How the values were obtained:
Test in all cases: relative viability (nuclei count vs DMSO), 5 days (fraction); higher = more cells survive
[1] = tested on: 201T
Summary of the method: (§1)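 For relative viability, nuclei counts in treated wells were divided by those in vehicle wells. Lung cancer cell lines had been pin-tool dosed in 1536-well plates the day after seeding and cultured for 5 days, then fixed and stained in one step (final 0.05% Triton X-100, 1% formaldehyde, 1 ug/ml Hoechst) and imaged at 4×. Doses were one drug alone or a fixed anchor-drug dose plus five library-drug doses (not always all listed) in √10 steps, and values are duplicate-plate medians.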

[2] = tested on: A-427
Summary of the method: as §1

[3] = tested on: ABC-1
Summary of the method: as §1

[4] = tested on: BEN
Summary of the method: as §1

[5] = tested on: CAL-12T
Summary of the method: as §1

[6] = tested on: H3255
Summary of the method: as §1

[7] = tested on: HCC-15
Summary of the method: as §1

[8] = tested on: LC-2-ad
Summary of the method: as §1

[9] = tested on: LCLC-97TM1
Summary of the method: as §1

[10] = tested on: NCI-H1650
Summary of the method: as §1

[11] = tested on: NCI-H1651
Summary of the method: as §1

[12] = tested on: NCI-H1792
Summary of the method: as §1

[13] = tested on: NCI-H1915
Summary of the method: as §1

[14] = tested on: NCI-H1944
Summary of the method: as §1

[15] = tested on: NCI-H2023
Summary of the method: as §1

[16] = tested on: NCI-H2087
Summary of the method: as §1

[17] = tested on: NCI-H441
Summary of the method: as §1

[18] = tested on: NCI-H460
Summary of the method: as §1

[19] = tested on: NCI-H520
Summary of the method: as §1

[20] = tested on: NCI-H596
Summary of the method: as §1

[21] = tested on: NCI-H650
Summary of the method: as §1

[22] = tested on: NCI-H661
Summary of the method: as §1

[23] = tested on: NCI-H727
Summary of the method: as §1

[24] = tested on: PC-3 [JPC-3]
Summary of the method: as §1

COc1cc(N2CCC(C(N)=O)CC2)ccc1Nc1nc(N)c(Cl)c(Nc2ccccc2S(=O)(=O)C(C)C)n1 [HG-5-88-01] + O=C(c1cc(Cc2n[nH]c(=O)c3ccccc23)ccc1F)N1CCN(C(=O)C2CC2)CC1 [Olaparib] (partner 8 µM)
relative viability ([1]; first compound 0.04 µM): 0.841 | relative viability ([1]; first compound 0.1265 µM): 0.844 | relative viability ([1]; first compound 1.265 µM): 0.795 | relative viability ([1]; first compound 4 µM): 0.831 | relative viability ([2]; first compound 0.04 µM): 0.652 | relative viability ([2]; first compound 0.1265 µM): 0.807 | relative viability ([2]; first compound 0.4 µM): 0.762 | relative viability ([2]; first compound 1.265 µM): 0.746 | relative viability ([2]; first compound 4 µM): 0.513 | relative viability ([3]; first compound 0.04 µM): 1 | relative viability ([3]; first compound 0.1265 µM): 0.494 | relative viability ([3]; first compound 0.4 µM): 0.688 | relative viability ([3]; first compound 1.265 µM): 0.686 | relative viability ([3]; first compound 4 µM): 0.589 | relative viability ([4]; first compound 0.04 µM): 1.2 | relative viability ([4]; first compound 0.1265 µM): 1.16 | relative viability ([4]; first compound 0.4 µM): 1.13 | relative viability ([4]; first compound 1.265 µM): 0.683 | relative viability ([4]; first compound 4 µM): 0.993 | relative viability ([5]; first compound 0.04 µM): 0.733 | relative viability ([5]; first compound 0.1265 µM): 0.779 | relative viability ([5]; first compound 0.4 µM): 0.787 | relative viability ([5]; first compound 1.265 µM): 0.667 | relative viability ([5]; first compound 4 µM): 0.319 | relative viability ([6]; first compound 0.04 µM): 0.556 | relative viability ([6]; first compound 0.1265 µM): 0.593 | relative viability ([6]; first compound 0.4 µM): 0.555 | relative viability ([6]; first compound 4 µM): 0.531 | relative viability ([7]; first compound 0.04 µM): 0.738 | relative viability ([7]; first compound 0.1265 µM): 0.616 | relative viability ([7]; first compound 0.4 µM): 0.883 | relative viability ([7]; first compound 1.265 µM): 0.707 | relative viability ([7]; first compound 4 µM): 0.7 | relative viability ([8]; first compound 0.04 µM): 0.691 | relative viability ([8]; first compound 0.1265 µM): 0.692 | relative viability ([8]; first compound 0.4 µM): 0.725 | relative viability ([8]; first compound 1.265 µM): 0.692 | relative viability ([8]; first compound 4 µM): 0.721 | relative viability ([9]; first compound 0.04 µM): 0.434 | relative viability ([9]; first compound 0.1265 µM): 0.396 | relative viability ([9]; first compound 0.4 µM): 0.398 | relative viability ([9]; first compound 1.265 µM): 0.26 | relative viability ([9]; first compound 4 µM): 0.193 | relative viability ([10]; first compound 0.04 µM): 0.729 | relative viability ([10]; first compound 0.1265 µM): 0.753 | relative viability ([10]; first compound 0.4 µM): 0.969 | relative viability ([10]; first compound 1.265 µM): 0.65 | relative viability ([10]; first compound 4 µM): 0.837 | relative viability ([11]; first compound 0.04 µM): 0.189 | relative viability ([11]; first compound 0.1265 µM): 0.199 | relative viability ([11]; first compound 0.4 µM): 0.176 | relative viability ([11]; first compound 1.265 µM): 0.234 | relative viability ([11]; first compound 4 µM): 0.164 | relative viability ([12]; first compound 0.04 µM): 0.513 | relative viability ([12]; first compound 0.1265 µM): 0.424 | relative viability ([12]; first compound 0.4 µM): 0.434 | relative viability ([12]; first compound 1.265 µM): 0.397 | relative viability ([12]; first compound 4 µM): 0.484 | relative viability ([13]; first compound 0.04 µM): 0.259 | relative viability ([13]; first compound 0.1265 µM): 0.25 | relative viability ([13]; first compound 0.4 µM): 0.304 | relative viability ([13]; first compound 1.265 µM): 0.266 | relative viability ([13]; first compound 4 µM): 0.248 | relative viability ([14]; first compound 0.04 µM): 0.414 | relative viability ([14]; first compound 0.1265 µM): 0.374 | relative viability ([14]; first compound 0.4 µM): 0.479 | relative viability ([14]; first compound 1.265 µM): 0.466 | relative viability ([14]; first compound 4 µM): 0.466 | relative viability ([15]; first compound 0.04 µM): 0.515 | relative viability ([15]; first compound 0.1265 µM): 0.519 | relative viability ([15]; first compound 0.4 µM): 0.445 | relative viability ([15]; first compound 1.265 µM): 0.441 | relative viability ([15]; first compound 4 µM): 0.277 | relative viability ([16]; first compound 0.04 µM): 0.557 | relative viability ([16]; first compound 0.1265 µM): 0.645 | relative viability ([16]; first compound 0.4 µM): 0.585 | relative viability ([16]; first compound 1.265 µM): 0.536 | relative viability ([16]; first compound 4 µM): 0.502 | relative viability ([17]; first compound 0.04 µM): 0.557 | relative viability ([17]; first compound 0.1265 µM): 0.639 | relative viability ([17]; first compound 0.4 µM): 0.701 | relative viability ([17]; first compound 1.265 µM): 0.574 | relative viability ([17]; first compound 4 µM): 0.434 | relative viability ([18]; first compound 0.04 µM): 0.415 | relative viability ([18]; first compound 0.1265 µM): 0.498 | relative viability ([18]; first compound 0.4 µM): 0.388 | relative viability ([18]; first compound 1.265 µM): 0.356 | relative viability ([18]; first compound 4 µM): 0.503 | relative viability ([19]; first compound 0.04 µM): 0.289 | relative viability ([19]; first compound 0.1265 µM): 0.33 | relative viability ([19]; first compound 0.4 µM): 0.389 | relative viability ([19]; first compound 1.265 µM): 0.327 | relative viability ([19]; first compound 4 µM): 0.363 | relative viability ([20]; first compound 0.04 µM): 0.729 | relative viability ([20]; first compound 0.1265 µM): 0.734 | relative viability ([20]; first compound 0.4 µM): 0.682 | relative viability ([20]; first compound 1.265 µM): 0.777 | relative viability ([20]; first compound 4 µM): 0.694 | relative viability ([21]; first compound 0.04 µM): 0.423 | relative viability ([21]; first compound 0.1265 µM): 0.366 | relative viability ([21]; first compound 0.4 µM): 0.408 | relative viability ([21]; first compound 1.265 µM): 0.321 | relative viability ([21]; first compound 4 µM): 0.239 | relative viability ([22]; first compound 0.04 µM): 0.707 | relative viability ([22]; first compound 0.1265 µM): 0.779 | relative viability ([22]; first compound 0.4 µM): 0.8 | relative viability ([22]; first compound 1.265 µM): 0.716 | relative viability ([22]; first compound 4 µM): 0.845 | relative viability ([23]; first compound 0.04 µM): 0.715 | relative viability ([23]; first compound 0.1265 µM): 0.705 | relative viability ([23]; first compound 0.4 µM): 0.827 | relative viability ([23]; first compound 4 µM): 0.572 | relative viability ([24]; first compound 0.04 µM): 1.15 | relative viability ([24]; first compound 0.1265 µM): 1.14 | relative viability ([24]; first compound 0.4 µM): 1.04 | relative viability ([24]; first compound 1.265 µM): 0.379 | relative viability ([24]; first compound 4 µM): 0.506
